According to patent US20240287138A1, “CYCLIC PEPTIDES FOR INHIBITING TNF RECEPTOR 1 ACTIVITY” (Merck Sharp & Dohme LLC, priority 2023, published 2024):
Read-outs that look alike come from different tables or passages of the source. Numbered stars: 1 amine (or outer) side, 2 acyl side, 3 side chain; on linkers, the order of the positions; unused ones are H or OH. Bridge positions count the residues as written; N and C are the ends. Square brackets hold non-standard residues; d marks the D form. Peptide text beside a SMILES is read from it. * marks the point of attachment. Trp(βS-Me,7-OMe) = COc1cccc2c([C@H](C)[C@H](N)C(=O)O)c[nH]c12; Phe(3R-OH) = O=C([C@@H](N[*:1])[C@H](O[*:3])c1ccccc1)[*:2]; X56 = Cc1cccc2c([C@H](C)[C@H](N[*:1])C(=O)[*:2])c[nH]c12; Trp(1-CH2COOH) = N[C@@H](Cc1cn(CC(=O)O)c2ccccc12)C(=O)O; X44 = NC(=O)c1ccc([C@@H](O)[C@H](N[*:1])C(=O)[*:2])cc1; Phe(4-SO2NH2) = N[C@@H](Cc1ccc(S(N)(=O)=O)cc1)C(=O)O; Phe(4-SO3H) = N[C@@H](Cc1ccc(S(=O)(=O)O)cc1)C(=O)O; Trp(7-CN) = N#Cc1cccc2c(C[C@H](N)C(=O)O)c[nH]c12; Trp(7-Cl) = N[C@@H](Cc1c[nH]c2c(Cl)cccc12)C(=O)O; X62 = O=C(O)c1ccc(C[C@H](N[*:1])C(=O)[*:2])cc1Cl; Phe(4-CONH2) = NC(=O)c1ccc(C[C@H](N)C(=O)O)cc1; Phe(4-COOH) = N[C@@H](Cc1ccc(C(=O)O)cc1)C(=O)O; X59 = O=C([C@H](Cc1[nH]nc2ccccc12)N[*:1])[*:2]; Trp(7-aza) = N[C@@H](Cc1c[nH]c2ncccc12)C(=O)O; X58 = O=C([C@H](CCCCC(F)(F)F)N[*:1])[*:2]; Pip(5R-OH) = O=C(O)[C@@H]1CC[C@@H](O)CN1; X1 = O=C([C@@H]1CC[C@H](N[*:1])C1)[*:2]; X53 = O=C([C@H](Cc1ccncc1F)N[*:1])[*:2]; Pip(4-aza) = O=C(O)[C@@H]1CNCCN1; 4Pal = N[C@@H](Cc1ccncc1)C(=O)O; NMeE = CN[C@@H](CCC(=O)O)C(=O)O; dHyp = O=C(O)[C@H]1C[C@H](O)CN1; Pip = O=C(O)[C@@H]1CCCCN1; αMeS = C[C@](N)(CO)C(=O)O; Carboxymethyl = O=C(O)C*; Nle = CCCC[C@H](N)C(=O)O; Sar = CNCC(=O)O

Assays:
[1] = molecular target: T1, human soluble TNFR1 (sTNFR1) (Homo sapiens, UniProt P19438); experiment: Human sTNFR1-peptide displacement assay (LanthaScreen Eu TR-FRET binding assay)
T1 construct: made in house; host or cells: Sf21 (baculovirus)
T1 sequence (P19438 with tags, fused parts or gaps): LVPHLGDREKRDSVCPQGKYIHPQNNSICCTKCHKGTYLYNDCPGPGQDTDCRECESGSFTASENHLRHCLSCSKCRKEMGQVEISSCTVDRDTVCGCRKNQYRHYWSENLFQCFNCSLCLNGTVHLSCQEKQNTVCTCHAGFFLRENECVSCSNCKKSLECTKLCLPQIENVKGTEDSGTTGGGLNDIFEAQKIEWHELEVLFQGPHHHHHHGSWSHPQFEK
Method in brief: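 Readout is the 665/615 nm TR-FRET ratio (Eu anti-His donor, streptavidin-Alexa647 acceptor), normalized to DMSO and saturating displacer, fit by Morrison-based five-parameter logistic for Kd^app. His-tagged sTNFR1 (1-211) prebound to 100 nM biotinylated peptide SEQ ID NO.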

[2] = molecular target: T2, TNFα-induced NF-κB signal transduction pathway (TNFR1 signaling) in THP-1 cells (Homo sapiens, UniProt P19438); experiment: THP-1 Lucia NF-κB reporter cell assay, inhibition of TNFα-induced NF-κB signaling; assay type: cell-based; settings: THP-1 NF-κB Lucia reporter cells, 10 ng/mL TNFα, 16-18 h, secreted luciferase; read-out: THP-1 IC50
T2 sequence (P19438 30-455): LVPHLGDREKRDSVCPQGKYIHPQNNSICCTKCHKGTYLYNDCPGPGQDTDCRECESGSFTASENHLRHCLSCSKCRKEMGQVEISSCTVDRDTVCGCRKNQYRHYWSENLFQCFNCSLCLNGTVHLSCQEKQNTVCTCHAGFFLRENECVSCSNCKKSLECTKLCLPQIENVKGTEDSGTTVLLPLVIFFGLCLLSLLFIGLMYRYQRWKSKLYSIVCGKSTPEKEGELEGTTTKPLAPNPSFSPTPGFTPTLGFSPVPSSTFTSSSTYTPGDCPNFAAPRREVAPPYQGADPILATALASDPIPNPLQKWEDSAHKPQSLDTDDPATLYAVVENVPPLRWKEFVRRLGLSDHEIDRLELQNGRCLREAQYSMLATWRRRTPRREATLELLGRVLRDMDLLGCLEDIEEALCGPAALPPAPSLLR
Method in brief: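 Inhibition of TNFR1-driven NF-κB activation was measured as luminescence of secreted reporter luciferase following overnight (16-18 h) stimulation with 10 ng/mL TNFα.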

Row | Structure (SMILES) | Kd [1] | IC50 [2] | IC50 [1] | Kd ([1]; displacement of biotinylated peptide SEQ ID NO. 1 from sTNFR1, 20 point titration, 5-parameter fit based on Morrison equation (tight binding), read-out: TR-FRET Kd^app)
1 | CCCC[C@@H]1NC(=O)[C@@H]2CC[C@@H](C2)NC(=O)[C@H]([C@@H](C)c2c[nH]c3c(OC)cccc23)NC(=O)CN(C)C(=O)[C@H](Cc2ccc(O)cc2)NC(=O)[C@H](Cc2ccc(C(=O)O)cc2)NC(=O)[C@](C)(CO)NC(=O)[C@H](Cc2c[nH]c3c(Cl)cccc23)NC(=O)[C@H](Cc2ccncc2)NC(=O)[C@H](CC(N)=O)NC(=O)[C@H](CCC(=O)O)N(C)C(=O)[C@H](Cc2cn(CC(=O)O)c3ccccc23)NC(=O)[C@@H]2CNCCN2C(=O)[C@H](Cc2ccncc2)NC1=O [SEQ ID NO. 197] (cyclo([4Pal][Trp(7-Cl)][αMeS][Phe(4-COOH)]Y[Sar][Trp(βS-Me,7-OMe)][X1][Nle][4Pal][Pip(4-aza)][Trp(1-CH2COOH)][NMeE]N)) | 0.36 nM | 0.7 nM |  | 
2 | CCCC[C@@H]1NC(=O)[C@@H]2CC[C@@H](C2)NC(=O)[C@H]([C@@H](C)c2c[nH]c3c(OC)cccc23)NC(=O)CN(C)C(=O)[C@H](Cc2ccc(O)cc2)NC(=O)[C@H](Cc2ccc(C(=O)O)cc2)NC(=O)[C@](C)(CO)NC(=O)[C@H](Cc2c[nH]c3c(Cl)cccc23)NC(=O)[C@H](Cc2ccncc2F)NC(=O)[C@H](CC(N)=O)NC(=O)[C@H](CCC(=O)O)N(C)C(=O)[C@H](Cc2c[nH]c3ccccc23)NC(=O)[C@@H]2CNCCN2C(=O)[C@H](Cc2ccncc2)NC1=O [SEQ ID NO. 198] (cyclo([4Pal][Pip(4-aza)]W[NMeE]N[X53][Trp(7-Cl)][αMeS][Phe(4-COOH)]Y[Sar][Trp(βS-Me,7-OMe)][X1][Nle])) | 0.31 nM | 0.8 nM |  | 
3 | CCCC[C@@H]1NC(=O)[C@@H]2CC[C@@H](C2)NC(=O)[C@H]([C@@H](C)c2c[nH]c3c(OC)cccc23)NC(=O)CN(C)C(=O)[C@H](Cc2ccc(O)cc2)NC(=O)[C@H](Cc2ccc(S(=O)(=O)O)cc2)NC(=O)[C@](C)(CO)NC(=O)[C@H](Cc2c[nH]c3c(Cl)cccc23)NC(=O)[C@H](Cc2ccncc2)NC(=O)[C@H](CC(N)=O)NC(=O)[C@H](CCC(=O)O)N(C)C(=O)[C@H](Cc2c[nH]c3ccccc23)NC(=O)[C@@H]2CNCCN2C(=O)[C@H](Cc2ccncc2)NC1=O [SEQ ID NO. 199] (cyclo([4Pal][Trp(7-Cl)][αMeS][Phe(4-SO3H)]Y[Sar][Trp(βS-Me,7-OMe)][X1][Nle][4Pal][Pip(4-aza)]W[NMeE]N)) | 0.32 nM | 1 nM |  | 
4 | CCCC[C@@H]1NC(=O)[C@@H]2CC[C@@H](C2)NC(=O)[C@H]([C@@H](C)c2c[nH]c3c(OC)cccc23)NC(=O)CN(C)C(=O)[C@H](Cc2ccc(O)cc2)NC(=O)[C@H](Cc2ccc(C(=O)O)cc2)NC(=O)[C@](C)(CO)NC(=O)[C@H](Cc2c[nH]c3c(Cl)cccc23)NC(=O)[C@H](Cc2ccncc2)NC(=O)[C@H](CC(N)=O)NC(=O)[C@H](CCC(=O)O)N(C)C(=O)[C@H](Cc2c[nH]c3ccccc23)NC(=O)[C@@H]2CNCCN2C(=O)[C@H](Cc2ccncc2F)NC1=O [SEQ ID NO. 201] (cyclo([4Pal][Trp(7-Cl)][αMeS][Phe(4-COOH)]Y[Sar][Trp(βS-Me,7-OMe)][X1][Nle][X53][Pip(4-aza)]W[NMeE]N)) | 0.21 nM | 0.9 nM |  | 
5 | CCCC[C@@H]1NC(=O)[C@@H]2CC[C@@H](C2)NC(=O)[C@H]([C@@H](C)c2c[nH]c3c(OC)cccc23)NC(=O)CN(C)C(=O)[C@H](Cc2ccc(C(=O)O)cc2)NC(=O)[C@H](Cc2ccc(S(N)(=O)=O)cc2)NC(=O)[C@](C)(CO)NC(=O)[C@H](Cc2c[nH]c3c(C#N)cccc23)NC(=O)[C@H](Cc2ccc(C(=O)O)cc2)NC(=O)[C@H](CC(N)=O)NC(=O)[C@H]2C[C@H](OCC(=O)O)CN2C(=O)[C@H](Cc2[nH]nc3ccccc23)NC(=O)[C@@H]2CC[C@@H](O)CN2C(=O)[C@H](Cc2ccncc2)NC1=O [SEQ ID NO. 204] (cyclo([4Pal][Pip(5R-OH)][X59][dHyp](Carboxymethyl)N[Phe(4-COOH)][Trp(7-CN)][αMeS][Phe(4-SO2NH2)][Phe(4-COOH)][Sar][Trp(βS-Me,7-OMe)][X1][Nle])) | 0.11 nM | 0.8 nM |  | 
6 | CCCC[C@@H]1NC(=O)[C@@H]2CC[C@@H](C2)NC(=O)[C@H]([C@@H](C)c2c[nH]c3c(OC)cccc23)NC(=O)CN(C)C(=O)[C@H](Cc2ccc(C(=O)O)c(Cl)c2)NC(=O)[C@H](Cc2ccc(C(N)=O)cc2)NC(=O)[C@](C)(CO)NC(=O)[C@H](Cc2c[nH]c3c(C#N)cccc23)NC(=O)[C@H](Cc2ccc(C(=O)O)c(Cl)c2)NC(=O)[C@H](CC(N)=O)NC(=O)[C@H]2C[C@H](O)CN2C(=O)[C@H](Cc2c[nH]c3ccccc23)NC(=O)[C@@H]2CC[C@@H](O)CN2C(=O)[C@H](Cc2ccncc2)NC1=O [SEQ ID NO. 207] (cyclo([4Pal][Pip(5R-OH)]W[dHyp]N[X62][Trp(7-CN)][αMeS][Phe(4-CONH2)][X62][Sar][Trp(βS-Me,7-OMe)][X1][Nle])) | 0.12 nM | 1 nM |  | 
7 | CCCC[C@@H]1NC(=O)CSC[C@@H](C(N)=O)NC(=O)[C@H]([C@@H](C)c2c[nH]c3c(C)cccc23)NC(=O)CN(C)C(=O)[C@H](Cc2ccc(O)cc2)NC(=O)[C@H](Cc2ccc(C(=O)O)cc2)NC(=O)[C@](C)(CO)NC(=O)[C@H](Cc2c[nH]c3c(Cl)cccc23)NC(=O)[C@H](Cc2ccncc2)NC(=O)[C@H](CC(N)=O)NC(=O)[C@H](CCC(=O)O)N(C)C(=O)[C@H](Cc2c[nH]c3ccccc23)NC(=O)[C@@H]2CCCCN2C(=O)[C@H](Cc2ccncc2)NC1=O [SEQ ID NO. 208] ({CH2CO}-[Nle][4Pal][Pip]W[NMeE]N[4Pal][Trp(7-Cl)][αMeS][Phe(4-COOH)]Y[Sar][X56]C-NH2; thioether N-14) |  | 4 nM | 1.31 nM | 
8 | CCCC[C@@H]1NC(=O)[C@@H]2CC[C@@H](C2)NC(=O)[C@H]([C@@H](C)c2c[nH]c3c(OC)cccc23)NC(=O)CN(C)C(=O)[C@H]([C@H](O)c2ccc(C(N)=O)cc2)NC(=O)[C@H](Cc2ccc(S(N)(=O)=O)cc2)NC(=O)[C@](C)(CO)NC(=O)[C@H](Cc2c[nH]c3c(C#N)cccc23)NC(=O)[C@H](Cc2ccc(C(=O)O)cc2)NC(=O)[C@H](CC(N)=O)NC(=O)[C@H]2C[C@H](O)CN2C(=O)[C@H](Cc2cn(CC(=O)O)c3ccccc23)NC(=O)[C@@H]2CC[C@@H](O)CN2C(=O)[C@H](Cc2ccncc2)NC1=O [SEQ ID NO. 210] (cyclo([4Pal][Pip(5R-OH)][Trp(1-CH2COOH)][dHyp]N[Phe(4-COOH)][Trp(7-CN)][αMeS][Phe(4-SO2NH2)][X44][Sar][Trp(βS-Me,7-OMe)][X1][Nle])) |  | 0.5 nM |  | 0.12 nM
9 | CCCC[C@@H]1NC(=O)CSC[C@@H](C(N)=O)NC(=O)[C@H]([C@@H](C)c2c[nH]c3c(OC)cccc23)NC(=O)CN(C)C(=O)[C@H](Cc2ccc(O)cc2)NC(=O)[C@H](Cc2ccc(C(=O)O)cc2)NC(=O)[C@](C)(CO)NC(=O)[C@H](Cc2c[nH]c3c(Cl)cccc23)NC(=O)[C@H](Cc2ccncc2)NC(=O)[C@H](CC(N)=O)NC(=O)[C@H](CCC(=O)O)N(C)C(=O)[C@H](Cc2c[nH]c3ncccc23)NC(=O)[C@H]([C@H](O)c2ccccc2)NC(=O)[C@H](Cc2ccncc2)NC1=O [SEQ ID NO. 211] ({CH2CO}-[Nle][4Pal][Phe(3R-OH)][Trp(7-aza)][NMeE]N[4Pal][Trp(7-Cl)][αMeS][Phe(4-COOH)]Y[Sar][Trp(βS-Me,7-OMe)]C-NH2; thioether N-14) | 0.63 nM | 3.3 nM | 0.79 nM | 
10 | COc1cccc2c([C@H](C)[C@@H]3NC(=O)CN(C)C(=O)[C@H](Cc4ccc(O)cc4)NC(=O)[C@H](Cc4ccc(C(=O)O)cc4)NC(=O)[C@](C)(CO)NC(=O)[C@H](Cc4c[nH]c5c(Cl)cccc45)NC(=O)[C@H](Cc4ccncc4)NC(=O)[C@H](CC(N)=O)NC(=O)[C@H](CCC(=O)O)N(C)C(=O)[C@H](Cc4c[nH]c5ccccc45)NC(=O)[C@@H]4CNCCN4C(=O)[C@H](Cc4ccncc4)NC(=O)[C@H](CCCCC(F)(F)F)NC(=O)[C@@H]4CC[C@@H](C4)NC3=O)c[nH]c12 [SEQ ID NO. 213] (cyclo([4Pal][Trp(7-Cl)][αMeS][Phe(4-COOH)]Y[Sar][Trp(βS-Me,7-OMe)][X1][X58][4Pal][Pip(4-aza)]W[NMeE]N)) | 0.31 nM | 1 nM |  | 
